Experimental findings from ChEMBL document CHEMBL1131281, “Cyclopentanedi- and tricarboxylic acids as squalene synthase inhibitors: syntheses and evaluation” (Bioorg Med Chem Lett, 1998) are described below.

The term IC50 denotes the midpoint of a concentration-inhibition curve. A low value points to greater potency. By inhibition is commonly meant the share of the control response that was lost under treatment. Read a high inhibition as a strong effect.

For one assay, the target named is T1, Squalene synthase (Rattus norvegicus, UniProt Q02769).
T1 sequence (Q02769 whole entry): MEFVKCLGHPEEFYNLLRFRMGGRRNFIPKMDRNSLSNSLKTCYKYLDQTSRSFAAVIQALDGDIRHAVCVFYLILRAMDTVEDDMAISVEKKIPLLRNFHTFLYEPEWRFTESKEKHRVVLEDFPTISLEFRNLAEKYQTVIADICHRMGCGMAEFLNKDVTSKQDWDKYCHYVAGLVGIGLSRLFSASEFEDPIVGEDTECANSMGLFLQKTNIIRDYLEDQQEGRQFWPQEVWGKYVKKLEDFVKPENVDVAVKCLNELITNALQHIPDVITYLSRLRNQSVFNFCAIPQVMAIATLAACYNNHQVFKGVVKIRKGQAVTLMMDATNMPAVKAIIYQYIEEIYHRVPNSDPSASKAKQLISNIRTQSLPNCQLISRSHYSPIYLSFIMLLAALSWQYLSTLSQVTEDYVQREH
As to the kind of experiment: Percent inhibition of squalene synthase from rat liver microsomes using [3H]farnesyl pyrophosphate (FPP) as substrate; NA indicates <20% inhibition at 1 uM concentration. For orientation: Microsomes from liver hold many membrane-bound enzymes, among them those of drug oxidation.
For the compound `CCCN(Cc1ccc(Oc2ccccc2)cc1)C(=O)[C@H]1C[C@@H](C(=O)N(CCC)Cc2ccc(Oc3ccccc3)cc2)[C@](CC(=O)O)(C(=O)O)C1`, the IC50 entry was “Not Active”. As for `CCCN(Cc1ccc(Oc2ccccc2)cc1)C(=O)[C@@H]1[C@H](C(=O)O)[C@@H](C(=O)N(CCC)Cc2ccc(Oc3ccccc3)cc2)O[C@H]1C(=O)O`, the concentration for half-maximal inhibition (IC50) result is “Not Active”.

A further assay addresses T1, Squalene synthase. As to the kind of experiment: Compound was tested for inhibition of squalene synthase from rat liver microsomes using [3H]farnesyl pyrophosphate (FPP) as substrate.
For `CCCN(Cc1ccc(Oc2ccccc2)cc1)C(=O)[C@H]1[C@@H](C(=O)O)[C@H](C(=O)O)O[C@@H]1C(=O)N(CCC)Cc1ccc(Oc2ccccc2)cc1`, the IC50 stood at 3000 nM. Compound `CCCN(Cc1ccc(Oc2ccccc2)cc1)C(=O)[C@H]1C[C@@H](C(=O)N(CCC)Cc2ccc(Oc3ccccc3)cc2)[C@H](C(=O)O)[C@H]1C(=O)O` showed a concentration for half-maximal inhibition (IC50) of 580 nM. On the same count and under the same terms, the figure for `CCCN(Cc1ccc(Oc2ccccc2)cc1)C(=O)[C@H]1C[C@H](C(=O)N(CCC)Cc2ccc(Oc3ccccc3)cc2)[C@H](C(=O)O)[C@H]1C(=O)O` is 170 nM; for `CCCN(Cc1ccc(Oc2ccccc2)cc1)C(=O)[C@H]1C[C@@H](C(=O)N(CCC)Cc2ccc(Oc3ccccc3)cc2)[C@](CC(=O)O)(C(=O)O)[C@H]1C(=O)O` it is 240 nM; for `CCCN(Cc1ccc(Oc2ccccc2)cc1)C(=O)[C@H]1[C@@H](C(=O)O)[C@@H](C(=O)N(CCC)Cc2ccc(Oc3ccccc3)cc2)C[C@H]1C(=O)O` it is 2900 nM.

The compound `CCCN(Cc1ccc(Oc2ccccc2)cc1)C(=O)[C@@H]1[C@H](C(=O)N(CCC)Cc2ccc(Oc3ccccc3)cc2)[C@H](C(=O)O)C[C@@H]1C(=O)O` yielded an IC50 of 9100 nM.

The target in the next assay is T2, Squalene synthase (Rattus norvegicus) (UniProt Q02769).
T2 sequence (whole entry): T1 sequence (Q02769 whole entry)
As to the kind of experiment: Percent inhibition of squalene synthase from rat liver microsomes using [3H]farnesyl pyrophosphate (FPP) as substrate at 1 uM concentration.
The compound `CCCN(Cc1ccc(Oc2ccccc2)cc1)C(=O)[C@H]1C[C@@H](C(=O)N(CCC)Cc2ccc(Oc3ccccc3)cc2)[C@@](CC(=O)O)(C(=O)O)C1` returned an inhibition of 44%. `CCCN(Cc1ccc(Oc2ccccc2)cc1)C(=O)[C@H]1C[C@@H](C(=O)N(CCC)Cc2ccc(Oc3ccccc3)cc2)[C@@](CC(=O)O)(C(=O)O)[C@@H]1C(=O)O` yielded an inhibition of 38%.

Compound `CCCN(Cc1ccc(Oc2ccccc2)cc1)C(=O)[C@@H]1[C@@H](C(=O)N(CCC)Cc2ccc(Oc3ccccc3)cc2)[C@@H](C(=O)O)C[C@@H]1C(=O)O` registered an inhibition of 24%. In the case of `CCCN(Cc1ccc(Oc2ccccc2)cc1)C(=O)[C@@H]1[C@@H](C(=O)N(CCC)Cc2ccc(Oc3ccccc3)cc2)[C@H](C(=O)O)C[C@@H]1C(=O)O`, the inhibition was 45%.

For the compound `CCCN(Cc1ccc(Oc2ccccc2)cc1)C(=O)[C@H]1C[C@@H](C(=O)N(CCC)Cc2ccc(Oc3ccccc3)cc2)[C@@](CC(=O)O)(C(=O)O)[C@H]1C(=O)O`, the inhibition stood at 25%.
